Measured values published in PubChem BioAssay AID1940 (Sanford-Burnham Center for Chemical Genomics, 2009).

System: mouse liver microsomes, LC/MS/MS parent remaining, 60 min
Test: mouse hepatic microsomal parent compound depletion – biochemical, LC/MS/MS, with and without NADPH, ADME assay, late-stage follow-up (AID 1940)
Settings: at 1 µM, stronger effect = lower value

CC1Cc2cc(S(=O)(=O)N3CCN(c4ccc(Cl)cc4)CC3)ccc2N1C(=O)C1CC1 (configuration not stated)
percent remaining: 0.56% | percent remaining (measured here: no NADPH control): 61.2%
